Results taken from patent US20050101595A1, “N-containing cycloalkyl-substituted amino-thiazole derivatives and pharmaceutical compositions for inhibiting cell proliferation and methods for their use” (PFIZER INC., priority 2003, published 2005).
pIC50, pKi: −log10 of the molar value. Structures can show the parent of a compound that is named as a salt.

Legend:
[1] = target: CDK2/Cyclin A (Homo sapiens, UniProt P24941); assay: Inhibition of CDK2/Cyclin A Retinoblastoma Kinase Activity; assay type: biochemical; settings: for inhibition at 0.05 µM: read-out: % inhibition of CDK2 (@ 0.05 μM), compound at 0.05 μM; for pKi: apparent Ki, CDK2/proteolyzed cyclin A, Rb fragment substrate, 25 μM ATP
Outline: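 Percent inhibition is calculated against DMSO-only wells after subtracting no-enzyme background. The enzyme is human CDK2 complexed with proteolyzed cyclin A, used at 10 nM or 19 nM on an Rb fragment with 25 μM [32/33P]ATP, at pH 7.4 and 30° C.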

[2] = system: HCT-116 cell line; assay: Inhibition of cell growth, tetrazolium salt (MTT) assay; assay type: cell-based; settings: Homo sapiens, MTT; for inhibition at 0.175 µM: HCT-116, HCT-116 cells, compound at 0.175 uM; for pIC50: HCT-116, 120 h, first HCT-116 column (c4), three to five days, read-out: HCT-116 IC50
Outline: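 First, cells were seeded in McCoy's 5A medium and held 4 h. Next, inhibitor concentrations in 0.5% (v/v) DMSO were applied for three to five days at 37° C, 5% CO2. Finally, after 4 h with 0.2 mg/mL MTT and medium removal, solubilized formazan was measured at 540 nm.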

Row | Structure (SMILES) | inhibition at 0.05 µM [1] [%] | inhibition at 0.175 µM [2] [%] | inhibition at 0.5 µM ([1]; @0.5 μM, printed in the CDK2 Ki column) [%] | pIC50 [2] | pKi [1]
1 | COC(=O)CN(C)CCCS(=O)(=O)N1CCC(Nc2nc(N)c(C(=O)c3c(F)cccc3F)s2)CC1 [Example V136] | 76 | 9 |  |  | 
2 | Nc1nc(NC2CCN(S(=O)(=O)CCCN[C@H]3CCC(=O)NC3)CC2)sc1C(=O)c1c(F)cccc1F [Example V157] | 83 | 46 |  |  | 
3 | COCC(C)NCCCS(=O)(=O)N1CCC(Nc2nc(N)c(C(=O)c3c(F)cccc3F)s2)CC1 (centres unmarked) [Example V58] | 80 | 10 |  |  | 
4 | CSCCNCCCS(=O)(=O)N1CCC(Nc2nc(N)c(C(=O)c3c(F)cccc3F)s2)CC1 [Example V128] | 87 | 25 |  |  | 
5 | CN(CCCS(=O)(=O)N1CCC(Nc2nc(N)c(C(=O)c3c(F)cccc3F)s2)CC1)CC(N)=O [Example V138] | 76 | 0 |  |  | 
6 | CC(C)(C)NCCC(=O)N1CCC(Nc2nc(N)c(C(=O)c3c(F)cccc3F)s2)CC1 [Example U4, Acetic Acid Salt] |  |  | 40 | < 5.30 | 
7 | Nc1nc(NC2CCN(S(=O)(=O)CCCNCCCN3CCCC3)CC2)sc1C(=O)c1c(F)cccc1F [Example V73] | 82 | 0 |  |  | 
8 | Nc1nc(NC2CCN(S(=O)(=O)CCCNCc3ccncc3)CC2)sc1C(=O)c1c(F)cccc1F [Example V23] | 87 | 24 |  |  | 
9 | Nc1nc(NC2CCN(S(=O)(=O)CCCNC3CCCNC3=O)CC2)sc1C(=O)c1c(F)cccc1F (centres unmarked) [Example V162] | 83 | 9 |  |  | 
10 | Nc1nc(NC2CCN(S(=O)(=O)CCCNCC3CCCCC3)CC2)sc1C(=O)c1c(F)cccc1F [Example V118] | 90 | 54 |  |  | 
11 | Nc1nc(NC2CCN(S(=O)(=O)CCCNc3ccc4cccc(O)c4n3)CC2)sc1C(=O)c1c(F)cccc1F [Example V142] | 80 | 0 |  |  | 
12 | Nc1nc(NC2CCN(S(=O)(=O)CCCNc3nccc4cccnc34)CC2)sc1C(=O)c1c(F)cccc1F [Example V145] | 83 | 0 |  |  | 
13 | C[C@H](NCCCS(=O)(=O)N1CCC(Nc2nc(N)c(C(=O)c3c(F)cccc3F)s2)CC1)C(N)=O [Example V121] | 77 | 4 |  |  | 
14 | CC(C)NCCCS(=O)(=O)N1CCC(Nc2nc(N)c(C(=O)c3c(F)cccc3F)s2)CC1 [Example V93] | 84 | 11 |  |  | 
15 | CN1CCCN(CCCS(=O)(=O)N2CCC(Nc3nc(N)c(C(=O)c4c(F)cccc4F)s3)CC2)CC1 [Example V30] | 78 | 8 |  |  | 
16 | Nc1nc(NC2CCN(S(=O)(=O)CCCN[C@@H]3CCCC[C@@H]3CO)CC2)sc1C(=O)c1c(F)cccc1F [Example V71] | 85 | 5 |  |  | 
17 | Nc1nc(NC2CCN(S(=O)(=O)CCCN3CCNC(=O)C3)CC2)sc1C(=O)c1c(F)cccc1F [Example V166] | 72 | 3 |  |  | 
18 | CC(C)OCCNCCCS(=O)(=O)N1CCC(Nc2nc(N)c(C(=O)c3c(F)cccc3F)s2)CC1 [Example V131] | 82 | 5 |  |  | 
19 | Nc1nc(NC2CCN(S(=O)(=O)CCCN3Cc4ccccc4C3)CC2)sc1C(=O)c1c(F)cccc1F [Example V155] | 87 | 11 |  |  | 
20 | Nc1nc(NC2CCN(S(=O)(=O)CCCNCc3cccs3)CC2)sc1C(=O)c1c(F)cccc1F [Example V28] | 91 | 33 |  |  | 
21 | NC(=O)CCNCCCS(=O)(=O)N1CCC(Nc2nc(N)c(C(=O)c3c(F)cccc3F)s2)CC1 [Example V122] | 79 | 32 |  |  | 
22 | Nc1nc(NC2CCN(S(=O)(=O)CCCN3CCCCC3CCO)CC2)sc1C(=O)c1c(F)cccc1F (centres unmarked) [Example V38] | 80 | 1 |  |  | 
23 | N#CCCNCCCS(=O)(=O)N1CCC(Nc2nc(N)c(C(=O)c3c(F)cccc3F)s2)CC1 [Example V92] | 81 | 9 |  |  | 
24 | CCN(CCCCO)CCCS(=O)(=O)N1CCC(Nc2nc(N)c(C(=O)c3c(F)cccc3F)s2)CC1 [Example V108] | 79 | 2 |  |  | 
25 | NC(=O)CNCCCS(=O)(=O)N1CCC(Nc2nc(N)c(C(=O)c3c(F)cccc3F)s2)CC1 [Example V17] | 78 | 0 |  |  | 

Row | Structure (SMILES) | inhibition at 0.05 µM [1] [%] | inhibition at 0.175 µM [2] [%] | inhibition at 0.5 µM ([1]; @0.5 μM, printed in the CDK2 Ki column) [%] | pIC50 [2] | pKi [1]
26 | Nc1nc(NC2CCN(S(=O)(=O)CCCN3CCC(O)CC3)CC2)sc1C(=O)c1c(F)cccc1F [Example V25] | 73 | 16 |  |  | 
27 | Cc1ccc(CNCCCS(=O)(=O)N2CCC(Nc3nc(N)c(C(=O)c4c(F)cccc4F)s3)CC2)cc1 [Example V80] | 91 | 21 |  |  | 
28 | Nc1nc(NC2CCN(S(=O)(=O)CCCNCCC3CCOCC3)CC2)sc1C(=O)c1c(F)cccc1F [Example V164] | 85 | 0 |  |  | 
29 | Nc1nc(NC2CCN(S(=O)(=O)CCCN3CCN(CCO)CC3)CC2)sc1C(=O)c1c(F)cccc1F [Example V34] | 67 | 16 |  |  | 
30 | CN(CCO)CCCS(=O)(=O)N1CCC(Nc2nc(N)c(C(=O)c3c(F)cccc3F)s2)CC1 [Example V148] | 83 | 2 |  |  | 
31 | COC(=O)C1CCN(CCCS(=O)(=O)N2CCC(Nc3nc(N)c(C(=O)c4c(F)cccc4F)s3)CC2)C1 (centres unmarked) [Example V160] | 84 | 0 |  |  | 
32 | Nc1nc(NC2CCN(S(=O)(=O)CCCNCC3(O)CCCCC3)CC2)sc1C(=O)c1c(F)cccc1F [Example V144] | 87 | 0 |  |  | 
33 | Nc1ncccc1CNCCCS(=O)(=O)N1CCC(Nc2nc(N)c(C(=O)c3c(F)cccc3F)s2)CC1 [Example V151] | 79 | 0 |  |  | 
34 | Cc1nnc(CCNCCCS(=O)(=O)N2CCC(Nc3nc(N)c(C(=O)c4c(F)cccc4F)s3)CC2)[nH]1 [Example V174] | 84 | 26 |  |  | 
35 | Nc1cccc(CNCCCS(=O)(=O)N2CCC(Nc3nc(N)c(C(=O)c4c(F)cccc4F)s3)CC2)c1 [Example V149] | 92 | 0 |  |  | 
36 | CCCNCCCS(=O)(=O)N1CCC(Nc2nc(N)c(C(=O)c3c(F)cccc3F)s2)CC1 [Example V56] | 83 | 19 |  |  | 
37 | COC1CCN(CCCS(=O)(=O)N2CCC(Nc3nc(N)c(C(=O)c4c(F)cccc4F)s3)CC2)CC1 [Example K59, {4-Amino-2-[(1-{[3-(4-methoxypiperidin-1-yl)propyl]sulfonyl}piperidin-4-yl)amino]-1,3-thiazol-5-yl}(2,6-difluorophenyl)methanone] |  |  |  | 6.57 | 7.96
38 | CC1CCN(CCCS(=O)(=O)N2CCC(Nc3nc(N)c(C(=O)c4c(F)cccc4F)s3)CC2)CC1 [Example K58, {4-Amino-2-[(1-{[3-(4-methylpiperidin-1-yl)propyl]sulfonyl}piperidin-4-yl)amino]-1,3-thiazol-5-yl}(2,6-difluorophenyl)methanone] |  |  |  | 6.82 | 7.96
39 | CNCCCS(=O)(=O)N1CCC(Nc2nc(N)c(C(=O)c3c(F)cccc3F)s2)CC1 [Example V86] | 61 | 22 |  |  | 
40 | Nc1nc(NC2CCN(S(=O)(=O)CCCN3CCN4CCCC4C3)CC2)sc1C(=O)c1c(F)cccc1F (centres unmarked) [Example V152] | 78 | 0 |  |  | 
41 | CCc1ccnc(NCCCS(=O)(=O)N2CCC(Nc3nc(N)c(C(=O)c4c(F)cccc4F)s3)CC2)c1 [Example V111] | 86 | 5 |  |  | 
42 | Nc1nc(NC2CCN(S(=O)(=O)CCCN3CCCC(F)(F)C3)CC2)sc1C(=O)c1c(F)cccc1F [Example V167] | 83 | 0 |  |  | 
43 | Nc1nc(NC2CCN(S(=O)(=O)CCCN3CCCCCC3)CC2)sc1C(=O)c1c(F)cccc1F [Example V69] | 81 | 54 |  |  | 
44 | CC(O)CCNCCCS(=O)(=O)N1CCC(Nc2nc(N)c(C(=O)c3c(F)cccc3F)s2)CC1 (centres unmarked) [Example V81] | 78 | 5 |  |  | 
45 | CC(C)OCCCNCCCS(=O)(=O)N1CCC(Nc2nc(N)c(C(=O)c3c(F)cccc3F)s2)CC1 [Example V96] | 84 | 10 |  |  | 
46 | C=CCNCCCS(=O)(=O)N1CCC(Nc2nc(N)c(C(=O)c3c(F)cccc3F)s2)CC1 [Example K57, {2-[1-(3-Allylamino-propane-1-sulfonyl)-piperidin-4-ylamino]-4-amino-thiazol-5-yl}-(2,6-difluoro-phenyl)-methanone. Trifluoroacetic Acid Salt] |  |  |  | 6.32 | 8.15
47 | CN(C)CCN(C)CCCS(=O)(=O)N1CCC(Nc2nc(N)c(C(=O)c3c(F)cccc3F)s2)CC1 [Example V95] | 70 | 3 |  |  | 
48 | Nc1nc(NC2CCN(S(=O)(=O)CCCN3CCC(O)C3)CC2)sc1C(=O)c1c(F)cccc1F (centres unmarked) [Example V68] | 85 | 10 |  |  | 
49 | Nc1nc(NC2CCN(S(=O)(=O)CCCNCCc3ccccn3)CC2)sc1C(=O)c1c(F)cccc1F [Example V8] | 81 | 18 |  |  | 
